{"source": "patent US8153410B2", "about": "“Alternate morpheein forms of allosteric proteins as a target for the development of bioactive molecules” (Fox Chase Cancer Center, priority 2003, dated 2012)", "key": {"[1]": {"target": "T1, pea PBGS (Pisum sativum, UniProt P30124)", "T1 sequence (P30124 69-398 limits assumed)": "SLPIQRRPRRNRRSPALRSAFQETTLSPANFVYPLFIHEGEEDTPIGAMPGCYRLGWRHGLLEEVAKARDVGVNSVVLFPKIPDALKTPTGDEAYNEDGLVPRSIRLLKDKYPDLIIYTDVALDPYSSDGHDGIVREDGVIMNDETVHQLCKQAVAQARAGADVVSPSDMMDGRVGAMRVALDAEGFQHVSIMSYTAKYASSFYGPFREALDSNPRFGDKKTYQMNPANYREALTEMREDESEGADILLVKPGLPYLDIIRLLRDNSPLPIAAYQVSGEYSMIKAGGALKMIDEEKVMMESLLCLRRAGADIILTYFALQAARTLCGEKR", "experiment": "pea PBGS activity assay (inhibition, protein concentration dependent specific activity)", "format": "biochemical", "set-up": "made in house", "method": "FIG. 32(a) The inhibitor morphlock-1 is illustrated as posed by Glide. The subunits A, B, and E are illustrated as ribbon diagram. Morphlock-1 is shown with carbon atoms and illustrated as ball and stick. FIG. 32(b) The chemical structure of morphlock-1. […] Pea PBGS was incubated with various concentrations of morphlock-1 (in a DMSO solution). Each concentration of morphlock-1 with a fixed amount of DMSO was incubated with protein for 30 minutes at 37° C. prior to resolution on 12.5% polyacrylamide native PhastGels. […] (d) The protein concentration dependence of pea PBGS specific activity is illustrated. […] The final concentration of morphlock-1 in the inhibited assay was 5 μM, and the concentration of PBGS in the inhibited and control assays ranged from 0.05-50 μg/mL (0.014-1.4 μM).\nThe proteins were incubated in the presence of 10× inhibitor for 30 minutes at 37° C. prior to assay. The concentrations on the X-axis represent the final concentration of morphlock-1 in the assay. FIG. 33(b). […] IC50 values were determined as per part (a) using the noted concentrations of pea PBGS. (c) Native PAGE evaluation of the effect of morphlock-1 on the quaternary structure equilibria of PBGS (˜1 mg/ml) from D. melanogaster, P. aeruginosa, V. cholerae, and H. sapiens. Note that the charge/mass ratio is not the same for PBGS from different species.\nThe dose response curve for morphlock-1 inhibition of pea PBGS (FIG. 37a) was initially carried out at 0.03 μM pea PBGS, where the hexamer is a significant component of the equilibrium mixture; the morphlock-1 concentration was varied from 0.1 μM to 0.1 mM.\nThe dose response curve for morphlock-1 inhibition of pea PBGS (FIG. 33(a)) was initially carried out at 0.03 μM pea PBGS, where the hexamer is a significant component of the equilibrium, in order to optimize the observed inhibition; the morphlock-1 concentration was varied from 0.1 μM to 0.1 mM."}, "[2]": {"target": "T2, human PBGS (Homo sapiens, UniProt P13716)", "T2 sequence (P13716 1-330)": "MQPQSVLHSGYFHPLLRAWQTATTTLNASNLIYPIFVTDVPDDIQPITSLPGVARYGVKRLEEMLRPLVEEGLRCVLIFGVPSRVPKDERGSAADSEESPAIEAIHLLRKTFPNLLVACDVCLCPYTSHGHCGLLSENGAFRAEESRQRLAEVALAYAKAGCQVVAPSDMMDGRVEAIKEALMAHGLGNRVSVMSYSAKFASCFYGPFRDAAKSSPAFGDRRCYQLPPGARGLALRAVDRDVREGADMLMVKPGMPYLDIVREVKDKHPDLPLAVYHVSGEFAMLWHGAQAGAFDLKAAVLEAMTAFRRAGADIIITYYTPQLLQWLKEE", "experiment": "human PBGS activity assay with morphlock-1", "format": "biochemical", "method": "(§1) FIG. 33 illustrates the species-specific effects of morphlock-1 on PBGS—FIG. 33(a) Dose-response curves showing morphlock-1 inhibition of pea PBGS at 1 μg/ml (∘) and human PBGS at 0.6 μg/ml (Δ) and 10 μg/ml (□). The proteins were incubated in the presence of 10× inhibitor for 30 minutes at 37° C. prior to assay. The concentrations on the X-axis represent the final concentration of morphlock-1 in the assay. FIG. 33(b). The IC50 for morphlock-1 is a function of pea PBGS concentration. IC50 values were determined as per part (a) using the noted concentrations of pea PBGS. (c) Native PAGE evaluation of the effect of morphlock-1 on the quaternary structure equilibria of PBGS (˜1 mg/ml) from D. melanogaster, P. aeruginosa, V. cholerae, and H. sapiens. Note that the charge/mass ratio is not the same for PBGS from different species.\n(§2) The putative morphlock-1 binding site is phylogenetically variable (see below). As such, morphlock-1 would not be expected to inhibit human PBGS. The effect of morphlock-1 on the activity of human PBGS was also determined at the midpoint of the protein concentration-dependent specific activity. […] To further establish the species-selectivity of morphlock-1, the gel shift assay was also carried out for PBGS from P. aeruginosa, and V. cholerae."}, "[3]": {"target": "P. aeruginosa PBGS (Pseudomonas aeruginosa, UniProt Q59643)", "sequence (Q59643 whole entry)": "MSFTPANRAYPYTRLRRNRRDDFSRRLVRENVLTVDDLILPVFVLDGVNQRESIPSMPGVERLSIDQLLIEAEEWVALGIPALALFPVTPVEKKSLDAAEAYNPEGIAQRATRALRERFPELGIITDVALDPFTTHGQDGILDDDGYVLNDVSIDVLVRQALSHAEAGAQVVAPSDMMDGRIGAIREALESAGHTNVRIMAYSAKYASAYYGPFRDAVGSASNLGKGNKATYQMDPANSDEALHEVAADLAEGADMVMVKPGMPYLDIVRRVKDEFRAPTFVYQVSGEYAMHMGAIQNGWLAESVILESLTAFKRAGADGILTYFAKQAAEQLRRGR", "experiment": "native PAGE gel shift of P. aeruginosa PBGS", "format": "biochemical", "details": "P. aeruginosa PBGS ~1 mg/ml", "method": "as §1, §2"}, "[4]": {"system": "V. cholerae PBGS", "experiment": "native PAGE gel shift of V. cholerae PBGS", "format": "biochemical", "details": "V. cholerae PBGS ~1 mg/ml", "method": "as §1, §2"}, "[5]": {"target": "T2, human PBGS", "experiment": "native PAGE gel shift of human PBGS", "format": "biochemical, H. sapiens", "method": "as §1, §2"}}, "note": "Read-outs that look alike come from different tables or passages of the source."}
{"smiles": "O=C1Nc2ccc(S(=O)(=O)NCC(O)c3ccc([N+](=O)[O-])cc3)c3cccc1c23", "note": "(centres unmarked) [morphlock-1, 2-oxo-1,2-dihydro-benzo(cd)indole-6-sulfonic acid[2-hydroxy-2-(4-nitro-phenyl)-ethyl]-amide]", "values": [{"measurement": "IC50", "setting": "[1]; 0.03 μM pea PBGS, morphlock-1 0.1 μM to 0.1 mM, 30 minutes at 37° C. prior to assay, read-out: apparent IC50 of morphlock-1 inhibition of pea PBGS", "result": 1200, "unit": "nM"}, {"measurement": "IC50", "setting": "[1]; low protein concentration, activity assays, read-out: IC50 by kinetic analysis / activity assays (and native PAGE with more sensitive staining)", "result": "~1000", "unit": "nM"}, {"measurement": "K(0.5) of the protein concentration dependent specific activity in the presence of morphlock-1", "setting": "[1]; morphlock-1 set at 5 μM, K(0.5) without morphlock-1 0.064 μM", "result": 0.134, "unit": "µM"}, {"measurement": "effect on the protein concentration-dependent specific activity for human PBGS", "setting": "[2]; 5 μM morphlock-1", "result": "has no affect"}, {"measurement": "inhibition of human PBGS activity", "setting": "[2]; midpoint of the protein concentration-dependent specific activity", "result": "does not inhibit human PBGS"}, {"measurement": "perturbation of the quaternary structure equilibrium, gel shift assay", "setting": "[3]", "result": "did not cause any perturbation of the quaternary structure equilibrium"}, {"measurement": "perturbation of the quaternary structure equilibrium, gel shift assay", "setting": "[4]", "result": "did not cause any perturbation of the quaternary structure equilibrium"}, {"measurement": "effect on mobility of human PBGS on native PAGE gel", "setting": "[5]", "result": "nor does it effect the mobility of human PBGS"}]}
